This is an account of results in patent publication US11266147B2, “Fungicidal oxadiazoles” (Bayer Aktiengesellschaft, priority 2017, dated 2022).

A word on the chromatographic logP: it is a lipophilicity value derived from retention on a column. Higher therefore signals higher lipophilicity.

One data set is described as follows: LogP by HPLC on reversed phase columns (EEC directive 79/831 Annex V.A8). The data set is classed as physicochemical. The following applies: method [a]: LC-UV, acidic range, 0.1% formic acid in water and acetonitrile, linear gradient 10% to 95% acetonitrile. As to the method: [table] If more than one LogP value is available within the same method, all the values are given and separated by “+”. Calibration was done with straight-chain alkan2-ones (with 3 to 16 carbon atoms) with known LogP values (measurement of LogP values using retention times with linear interpolation between successive alkanones). Lambda-max-values were determined using UV-spectra from 200 nm to 400 nm and the peak values of the chromatographic signals.
Consider `Cc1ccnc(Nc2ccc(-c3noc(C(F)(F)F)n3)cc2)n1` [Compound I-06], for which the LogP is 3.83^[a].
Still for that read-out and setting: then `FC(F)(F)c1nc(-c2cnc(NC3CCCC3)nc2)no1` [Compound I-08], with 3.83^[a]; and `FC(F)(Cl)c1nc(-c2cnc(NC3CC3C(F)(F)F)nc2)no1` (centres unmarked) [Compound I-09], with 3.65^[a]; and `FC(F)(F)c1nc(-c2cnc(NC3CCOC3)nc2)no1` (centres unmarked) [Compound I-10], with 2.35^[a].
For the compound `FC(F)(Cl)c1nc(-c2cnc(NC3CCOC3)nc2)no1` (centres unmarked) [Compound I-11], the LogP was 2.55^[a].
`CN(c1ncc(-c2noc(C(F)(F)Cl)n2)cn1)C1CCCC1` [Compound I-12]: the LogP was 5.42^[a].
Still for that read-out and setting: with `CC(=O)N1CCC(Nc2ncc(-c3noc(C(F)(F)F)n3)cn2)CC1` [Compound I-13] the figure was 2.17^[a]; with `CC1(Nc2ncc(-c3noc(C(F)(F)Cl)n3)cn2)CC1` [Compound I-14], 3.25^[a]; with `FC(F)(Cl)c1nc(-c2cnc(NC3CCOCC3)nc2)no1` [Compound I-15], 2.76^[a].
Same read-out and setting: then `FC(F)(F)c1nc(-c2cnc(NC3CCOCC3)nc2)no1` [Compound I-16], with 2.57^[a].
`FC(F)(F)c1nc(-c2cnc(NC3(c4ccccc4)CC3)nc2)no1` [Compound I-17]: the LogP was 3.74^[a].
`FC1(F)CC(Nc2ncc(-c3noc(C(F)(F)Cl)n3)cn2)C1` [Compound I-18]: the LogP is 3.48^[a].
As to `FC(F)(Cl)c1nc(-c2cnc(NC3Cc4ccccc4C3)nc2)no1` [Compound I-19], the LogP is 4.49^[a].
On to `CC(=O)N1CCC(Nc2ncc(-c3noc(C(F)(F)Cl)n3)cn2)CC1` [Compound I-20], for which the LogP was 2.32^[a].
`FC(F)(F)c1nc(-c2cnc(NC3CC3C(F)(F)F)nc2)no1` (centres unmarked) [Compound I-21]: the LogP was 3.46^[a].
For `O=S1(=O)CCC(Nc2ncc(-c3noc(C(F)(F)F)n3)cn2)C1` (centres unmarked) [Compound I-22], the LogP is 2.15^[a].
In the case of `FC(F)(F)c1nc(-c2cnc(NC3(c4ccccn4)CCC3)nc2)no1` [Compound I-23], the LogP was 1.96^[a].
As to `FC(F)(Cl)c1nc(-c2cnc(NC3(c4ccccn4)CCC3)nc2)no1` [Compound I-24], the LogP is 2.13^[a].
`CC1(Nc2ncc(-c3noc(C(F)(F)F)n3)cn2)CC1` [Compound I-25]: the LogP was 3.04^[a].
Consider `FC(F)(F)c1nc(-c2cnc(NC3Cc4ccccc4C3)nc2)no1` [Compound I-26], for which the LogP is 4.27^[a].
As to `FC(F)(Cl)c1nc(-c2cnc(NC3CC3)nc2)no1` [Compound I-27], the LogP was 2.76^[a].
The same measure, in the same setting: then `FC(F)(Cl)c1nc(-c2cnc(NC3CCCC3)nc2)no1` [Compound I-28], with 4.08^[a]; and `FC(F)(Cl)c1nc(-c2cnc(NC3(c4ccccc4)CC3)nc2)no1` [Compound I-29], with 3.94^[a]; and `O=S1(=O)CCC(Nc2ncc(-c3noc(C(F)(F)Cl)n3)cn2)C1` (centres unmarked) [Compound I-30], with 2.32^[a].
In the case of `FC(F)(F)c1nc(-c2cnc(NC3CC3)nc2)no1` [Compound I-31], the LogP was 2.57^[a].
On to `FC1(F)CC(Nc2ncc(-c3noc(C(F)(F)F)n3)cn2)C1` [Compound I-32], for which the LogP was 3.29^[a].
Turning to `FC(F)(Cl)c1nc(-c2cnc(NC3=NCCS3)nc2)no1` [Compound I-33], the LogP was 1.26^[a].
As to `FC(F)(F)c1nc(-c2cnc(NC3=NCCS3)nc2)no1` [Compound I-34], the LogP was 1.08^[a].
On the same count and under the same terms, then `Cc1cccc(Nc2ccc(-c3noc(C(F)(F)F)n3)cc2)c1` [Compound I-35], with 4.93^[a]; and `FC(F)(F)c1cccc(Nc2ccc(-c3noc(C(F)(F)F)n3)cc2)c1` [Compound I-36], with 5.08^[a]; and `FC(F)(F)c1nc(-c2ccc(Nc3ccccc3)cc2)no1` [Compound I-37], with 4.56^[a].
As for `FC(F)(F)c1nc(-c2ccc(Nc3ccc(Cl)cc3)cc2)no1` [Compound I-38], the LogP was 5.00^[a].
Take `FC(F)(F)Oc1ccccc1Nc1ccc(-c2noc(C(F)(F)F)n2)cc1` [Compound I-39]: the LogP is 5.11^[a].
On to `Cc1ccnc(Nc2ccc(-c3noc(C(F)(F)Cl)n3)cc2)n1` [Compound I-40], for which the LogP is 2.98^[a].
`Fc1ccccc1Nc1ncc(-c2noc(C(F)(F)Cl)n2)cn1` [Compound I-41]: the LogP was 3.94^[a].
For the compound `Fc1ccc(Nc2ncc(-c3noc(C(F)(F)F)n3)cn2)c(F)c1` [Compound I-42], the LogP was 3.70^[a].
In the case of `FC(F)Oc1ccc(Nc2ncc(-c3noc(C(F)(F)F)n3)cn2)cc1` [Compound I-43], the LogP was 3.92^[a].
On the same count and under the same terms, with `Fc1cccc(Nc2ncc(-c3noc(C(F)(F)F)n3)cn2)c1` [Compound I-44] the figure was 3.94^[a]; with `COc1cccc(Nc2ncc(-c3noc(C(F)(F)F)n3)cn2)c1` [Compound I-45], 3.76^[a]; with `FC(F)(F)c1nc(-c2cnc(Nc3cccc(Cl)c3)nc2)no1` [Compound I-46], 4.34^[a].
The same measure, in the same setting: then `FC(F)(F)c1nc(-c2cnc(Nc3ccccc3Cl)nc2)no1` [Compound I-47], with 4.20^[a].
With `N#CCc1ccc(Nc2ncc(-c3noc(C(F)(F)F)n3)cn2)cc1` [Compound I-48], the LogP is 3.27^[a].
`FC(F)(F)c1nc(-c2cnc(Nc3ccc4c(c3)OCO4)nc2)no1` [Compound I-49]: the LogP is 3.50^[a].
`CC(=O)Nc1cccc(Nc2ncc(-c3noc(C(F)(F)F)n3)cn2)c1` [Compound I-50]: the LogP is 2.59^[a].
Take `N#Cc1cccc(Nc2ncc(-c3noc(C(F)(F)F)n3)cn2)c1` [Compound I-51]: the LogP is 3.52^[a].
On to `COc1cc(Nc2ncc(-c3noc(C(F)(F)F)n3)cn2)ccc1C` [Compound I-52], for which the LogP was 4.30^[a].
In the case of `FC(F)(F)c1cccc(Nc2ncc(-c3noc(C(F)(F)F)n3)cn2)c1` [Compound I-53], the LogP was 4.46^[a].
In the case of `COc1ccccc1Nc1ncc(-c2noc(C(F)(F)F)n2)cn1` [Compound I-54], the LogP is 4.18^[a].
Consider `FC(F)(F)c1nc(-c2cnc(Nc3ccc(S(F)(F)(F)(F)F)cc3)nc2)no1` [Compound I-55], for which the LogP was 4.80^[a].
Turning to `Cc1cccc(Nc2ncc(-c3noc(C(F)(F)F)n3)cn2)c1` [Compound I-56], the LogP is 4.13^[a].
Consider `FC(F)(F)c1nc(-c2cnc(Nc3ccon3)nc2)no1` [Compound I-57], for which the LogP was 2.50^[a].
With `FC(F)(F)c1nc(-c2cnc(Nc3ccsc3)nc2)no1` [Compound I-58], the LogP is 3.70^[a].
On the same count and under the same terms, then `COc1ccc(Nc2ncc(-c3noc(C(F)(F)F)n3)cn2)cc1` [Compound I-59], with 3.57^[a]; and `FC(F)(F)c1nc(-c2cnc(Nc3cccc4c3CCC4)nc2)no1` [Compound I-60], with 4.44^[a].
For the compound `FC(F)(F)c1nc(-c2cnc(Nc3ccccc3)nc2)no1` [Compound I-61], the LogP was 3.74^[a].
Still for that read-out and setting: then `FC(F)(F)c1nc(-c2cnc(Nc3ccc(Cl)cc3)nc2)no1` [Compound I-62], with 4.34^[a]; and `Fc1ccc(Nc2ncc(-c3noc(C(F)(F)F)n3)cn2)cc1` [Compound I-63], with 3.79^[a]; and `FC(F)(Cl)c1nc(-c2cnc(Nc3ccon3)nc2)no1` [Compound I-64], with 2.71^[a].
On to `FC(F)(Cl)c1nc(-c2cnc(Nc3ccsc3)nc2)no1` [Compound I-65], for which the LogP was 3.92^[a].
As for `COc1ccc(Nc2ncc(-c3noc(C(F)(F)Cl)n3)cn2)cc1` [Compound I-66], the LogP was 3.79^[a].
In the case of `FC(F)(Cl)c1nc(-c2cnc(Nc3ccc(Cl)cc3)nc2)no1` [Compound I-67], the LogP was 4.56^[a].
In the case of `Cc1cccc(Nc2ncc(-c3noc(C(F)(F)Cl)n3)cn2)c1` [Compound I-68], the LogP was 4.34^[a].
Take `FC(F)Oc1ccc(Nc2ncc(-c3noc(C(F)(F)Cl)n3)cn2)cc1` [Compound I-69]: the LogP is 4.11^[a].
With `FC(F)(Cl)c1nc(-c2cnc(Nc3ccc4c(c3)OCO4)nc2)no1` [Compound I-70], the LogP was 3.72^[a].
As for `FC(F)(Cl)c1nc(-c2cnc(Nc3ccccc3)nc2)no1` [Compound I-71], the LogP is 3.96^[a].
On to `Fc1ccc(Nc2ncc(-c3noc(C(F)(F)Cl)n3)cn2)cc1` [Compound I-72], for which the LogP was 3.99^[a].
`FC(F)(Cl)c1nc(-c2cnc(Nc3cccc4c3CCC4)nc2)no1` [Compound I-73]: the LogP is 4.69^[a].
As for `CC(=O)Nc1cccc(Nc2ncc(-c3noc(C(F)(F)Cl)n3)cn2)c1` [Compound I-74], the LogP is 2.75^[a].
As for `Fc1ccc(Nc2ncc(-c3noc(C(F)(F)Cl)n3)cn2)c(F)c1` [Compound I-75], the LogP was 3.92^[a].
With `Fc1cccc(Nc2ncc(-c3noc(C(F)(F)Cl)n3)cn2)c1` [Compound I-76], the LogP is 4.18^[a].
The same measure, in the same setting: then `FC(F)(Cl)c1nc(-c2cnc(Nc3ccccc3Cl)nc2)no1` [Compound I-77], with 4.46^[a].
Still for that read-out and setting: then `COc1ccccc1Nc1ncc(-c2noc(C(F)(F)Cl)n2)cn1` [Compound I-78], with 4.41^[a]; and `FC(F)(Cl)c1nc(-c2cnc(Nc3cccc(Cl)c3)nc2)no1` [Compound I-79], with 4.56^[a].

Staying with this data set, now noted: reversed phase HPLC column; method [a]: LC-UV, acidic range, 0.1% formic acid in water and acetonitrile, linear gradient 10% to 95% acetonitrile.
Regarding `CC(=O)N(c1ncc(-c2noc(C(F)(F)F)n2)cn1)c1ccccc1F` [Compound I-07, N-(2-fluorophenyl)-N-{5-[5-(trifluoromethyl)-1,2,4-oxadiazol-3-yl]pyrimidin-2-yl}acetamide], the chromatographic logP came out at 3.23.
